From article PMC5419029 (Cancer research, 2017) come the findings set out here.

The target of test [1] is T1, OCTN1 (Homo sapiens, UniProt Q9H015).
T1 sequence (Q9H015 1-551): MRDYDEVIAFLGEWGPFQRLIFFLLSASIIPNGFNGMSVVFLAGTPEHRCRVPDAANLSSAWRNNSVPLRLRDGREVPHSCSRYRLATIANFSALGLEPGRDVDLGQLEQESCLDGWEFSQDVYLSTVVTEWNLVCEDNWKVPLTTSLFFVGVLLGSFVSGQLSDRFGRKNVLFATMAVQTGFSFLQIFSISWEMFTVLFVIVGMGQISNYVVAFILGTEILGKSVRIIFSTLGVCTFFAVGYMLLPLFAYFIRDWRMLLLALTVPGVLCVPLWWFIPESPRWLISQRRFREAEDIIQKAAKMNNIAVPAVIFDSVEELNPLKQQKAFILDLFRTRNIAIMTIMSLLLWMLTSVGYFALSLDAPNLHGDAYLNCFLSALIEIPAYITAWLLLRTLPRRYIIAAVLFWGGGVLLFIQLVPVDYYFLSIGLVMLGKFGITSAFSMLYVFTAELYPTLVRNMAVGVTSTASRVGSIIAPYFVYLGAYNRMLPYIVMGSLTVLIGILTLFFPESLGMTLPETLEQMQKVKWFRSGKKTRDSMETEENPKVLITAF
Nature of the test: uptake in OCTN1-transfected HEK293 cells. It is filed as cell-based.

Test [2] addresses T1, OCTN1. Briefly: uptake. It is filed as cell-based.
Test [3] concerns the target T1, OCTN1.

`C[N+](C)(C)[C@@H](Cc1c[nH]c(=S)[nH]1)C(=O)[O-]` [ergothioneine]: the “uptake in OCTN1-transfected HEK293 cells (transport efficiency)” value at OCTN1 [1] came out at 62 ± 8 µL/min/mg. Turning to `NC(=O)c1ncn([C@@H]2O[C@H](CO)[C@@H](O)[C@H]2O)n1` [ribavirin], the “uptake (1 μM, 5 min) in OCTN1-transfected HEK293 cells” value (“uptake (1 μM, 5 min)” below) on OCTN1 [2] was “adenosine analogs (eg, clofarabine and fludarabine), and guanosine analogs (eg, ribavirin)”.

On to `Nc1nc(F)nc2c1ncn2[C@@H]1O[C@H](CO)[C@@H](O)[C@@H]1O` [fludarabine], for which, at OCTN1 [2], the “uptake (1 μM, 5 min)” value is “adenosine analogs (eg, clofarabine and fludarabine), and guanosine analogs (eg, ribavirin)”. Take `CC[N+](CC)(CC)CC` [tetraethylammonium]: at OCTN1 [3], the “carbon 14-labeled TEA uptake in OCTN1-transfected HEK293 cells (transport effici)” value worked out at 1.1 ± 0.12 µL/min/mg.

As for `Nc1nc(Cl)nc2c1ncn2[C@@H]1O[C@H](CO)[C@@H](O)[C@@H]1F` [clofarabine], the “uptake (1 μM, 5 min)” value at OCTN1 [2] was “adenosine analogs (eg, clofarabine and fludarabine), and guanosine analogs (eg, ribavirin)”.
